Results from patent US20240124439A1, “Pyrido[2,3-D]Imidazole Derivatives and Their Use As Inhibitors of ITK for the Treatment of Skin Disease” (Pfizer Inc., priority 2020, published 2024).
Each block holds one compound with its values, some of them ahead of it.

Columns and labels:
[1] = tested on: activated CD4+ human T-cells (IL-2); assay: IL-2 inhibition in supernatants from activated CD4+ human T-cells (cisbio HTRF); type: cell-based; conditions: T-cell; CD3/CD28-activated CD4+ human T cells, ImmunoCult stimulation 20 to 24 hrs; geometric mean of count n
Protocol: IL-2 inhibition activity in supernatants from activated CD4+ human T-cells was determined by measuring the effect of a test compound on the activity using the cisbio HTRF™ technology.
Human CD4+ T cells were activated with CD3/CD28 for 3 days and expanded for an additional 4-6 days (7 to 9 days total). On day 0, frozen CD4+ T cells were thawed, treated with CD3/CD28 Dynabeads, and incubated at 37° C./5% CO2. On day 3, the beads were removed, and the cells were diluted to 5×10^5 cells/cm^2, placed in G-Rex10 flask, and incubated at 37° C./5% CO2. On day 7 to day 9 the cells were removed from the G-Rex flasks, counted and diluted back to 1×10^6 cells/ml in standard tissue culture flask.
The expanded CD4+ T-cells were centrifuged at 300×g for 10 minutes and resuspended to 0.5 million cells per ml (30,000 cells/well). 60 μl of CD4+ T cells were added per well to a 384 well plate containing 0.1 μL of varying concentrations of test compound in DMSO. The plates were incubated for 15 min at 37° C./5% CO2. 20 μl of diluted ImmunoCult™ (STEMCELL Technologies, 1:12.5 in T cell assay media) were added to all wells of the plate (1:50 final assay concentration). The plates were incubated for an additional 20 to 24 hrs at 37° C./5% CO2. The plates were centrifuged at 300×g for 10 minutes. 16 μL of supernatant was removed and combined with 4 μl of IL-2 HTRF Abs. (cisbio kit). Plates were incubated for 3 hours at RT and read with an EnVision plate reader at 665 nm and 615 nm wavelengths. The concentrations and resulting effect values for the tested compound were plotted and the concentration of compound required for 50% effect (IC50) was determined with the four-parameter logistic dose response equation.

[2] = biological target: IL-2-Inducible T-Cell Kinase (ITK) (Homo sapiens (Human), UniProt Q08881); assay: ITK enzyme assay (IL-2-inducible T-cell kinase activity); type: biochemical; conditions: geometric mean of count n
Chain of IL-2-Inducible T-Cell Kinase (ITK) (Q08881 whole entry): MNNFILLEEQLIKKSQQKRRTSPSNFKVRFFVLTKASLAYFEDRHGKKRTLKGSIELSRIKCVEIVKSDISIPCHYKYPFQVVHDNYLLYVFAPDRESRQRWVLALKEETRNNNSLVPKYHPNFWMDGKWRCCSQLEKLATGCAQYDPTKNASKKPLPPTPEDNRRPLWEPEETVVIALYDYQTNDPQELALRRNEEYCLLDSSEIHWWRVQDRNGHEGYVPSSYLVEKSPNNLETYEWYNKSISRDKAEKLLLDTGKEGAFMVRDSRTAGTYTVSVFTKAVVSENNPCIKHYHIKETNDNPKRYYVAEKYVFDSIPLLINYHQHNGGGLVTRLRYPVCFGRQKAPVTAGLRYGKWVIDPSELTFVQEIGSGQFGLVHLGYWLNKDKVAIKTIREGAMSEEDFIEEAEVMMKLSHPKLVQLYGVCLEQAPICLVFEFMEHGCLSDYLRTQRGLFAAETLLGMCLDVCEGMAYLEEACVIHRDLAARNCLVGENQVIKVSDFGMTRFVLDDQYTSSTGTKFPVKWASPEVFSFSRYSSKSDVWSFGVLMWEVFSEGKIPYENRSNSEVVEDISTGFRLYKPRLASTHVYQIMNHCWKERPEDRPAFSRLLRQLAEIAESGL
Protocol: ITK activity was determined by measuring the effect of a test compound in an ITK enzyme assay.
1.0 M HEPES Buffer pH 7.5 solution was prepared as follows: 238.3 g HEPES free acid (Sigma) and 800 mL of water were combined, and the mixture was stirred until complete dissolution. The pH was adjusted to 7.5 via titration with 5N NaOH and the volume adjusted to 1000 mL. The solution was filtered and sterilized.
ITK assay buffer was prepared as follows: 50 mL of HPLC-grade water was treated with 2 mL of 1.0 M HEPES Buffer, 500 μL of 2% Gelatin (Sigma), 1.0 mL of aqueous MgCl2 solution (1.0 M), and 1.0 mL of aqueous glutathione solution (0.5 M), and the solution was mixed. The solution was brought to 99 mL in a graduated cylinder by addition of water and sterilized through a 0.2 μm filter. 0.1 mL of Brij-35™ Surfact-Amps™ Detergent Solution (10% w/v aqueous solution, ThermoFisher) and 1.0 mL of ATP (Teknova,100 mM) were added and the solution was mixed.
Preparation of 1.33× ITK enzyme solution was as follows: 49.99 mL of ITK assay buffer was treated with 4.1 μL of ITK enzyme (ITK FL (N-Flag and C-His tagged, […]) Lake Pharma, 0.25 mg/ml in a buffer containing 25 mM Tris pH 7.8, 150 mM NaCl, 10% glycerol and 2 mM TCEP) and the mixture was gently agitated. The resulting solution was stored on ice. 30 Minutes prior to use, the enzyme solution was removed from ice and equilibrated to RT by incubation in a RT water bath.
Preparation of 4× ITK substrate solution was as follows: 50 mL of ITK assay buffer was treated with 100 μL of BTK peptide (China Peptide Company, 2 mM stock solution in DMSO). The tube was capped, mixed by gently inverting the tube, and then stored on ice. 30 Minutes prior to use, the substrate solution was removed from ice and equilibrated to RT by incubation in a RT water bath.
At the time of assay, 7.5 μL of the 1.33× ITK enzyme solution was added to plate wells containing 0.1 μL of varying concentrations of test compound in DMSO. The plate was incubated 30 min at RT. The plate wells were each treated with 2.5 uL of the 4× ITK substrate solution and the plate was sealed (TopSeal™, Perkin Elmer). The plate was spun at 1000 rpm for 30 sec and then incubated for 60 min at RT. The seal was removed, and each well was treated with 10 μL of Stop/Detect Buffer (20 mM HEPES pH 7.5, 0.01% gelatin, 1 nM LANCE PT66 (Perkin Elmer), 16.5 μg/ml Surelight APC (Perkin Elmer), 10 mM EDTA, 250 mM NaCl). The plate was again covered and was spun at 1000 rpm for […]. The plate was allowed to incubate overnight at RT and in a closed carrier to reduce dehydration. The seal was removed, and the fluorescence was read with a plate reader with an excitation wavelength of […]. The concentrations and resulting effect values for the tested compound were plotted and the concentration of compound required for 50% effect (IC50) was determined with the four-parameter logistic dose response equation.

SMILES: C[C@@H](C(=O)N(C)c1cnc2[nH]c(-c3n[nH]c4c3C[C@@H]3C[C@]3(C)C4)nc2c1)N1CC2CC(C1)O2 (single isomer, unassigned) [Example 41]
IC50 [1]: 600 nM | IC50 [2]: 116 nM

SMILES: C[C@H](C(=O)N(C)c1cnc2[nH]c(-c3n[nH]c4c3C[C@@H]3C[C@]3(C)C4)nc2c1)N1CC2CC(C1)O2 (single isomer, unassigned) [Example 42]
IC50 [1]: 143 nM | IC50 [2]: 21 nM

SMILES: CN(C(=O)C(F)(F)C1CCOCC1)c1cnc2nc(-c3n[nH]c4c3CCC(C)(C)C4)[nH]c2c1 [Example 5, N-(2-(6,6-Dimethyl-4,5,6,7-tetrahydro-1H-indazol-3-yl)-1H-imidazo[4,5-b]pyridin-6-yl)-2,2-difluoro-N-methyl-2-(tetrahydro-2H-pyran-4-yl)acetamide]
IC50 [1]: 375 nM | IC50 [2]: 14 nM

SMILES: CN(C(=O)Cn1cccn1)c1cnc2nc(-c3n[nH]c4c3C[C@@H]3C[C@]3(C)C4)[nH]c2c1 [Example 6, N-Methyl-N-(2-((4aS,5aR)-5a-methyl-1,4,4a,5,5a,6-hexahydrocyclopropa[f]indazol-3-yl)-1H-imidazo[4,5-b]pyridin-6-yl)-2-(1H-pyrazol-1-yl)acetamide]
IC50 [1]: 343 nM | IC50 [2]: 26 nM

SMILES: C[C@@H](C(=O)Nc1ccc2[nH]c(-c3n[nH]c4c3CCC(C)(C)C4)nc2c1)N1CCOCC1 [Example 33, (S)-N-(2-(6,6-Dimethyl-4,5,6,7-tetrahydro-1H-indazol-3-yl)-1H-benzo[d]imidazol-5-yl)-2-morpholinopropanamide]
IC50 [1]: 315 nM

SMILES: CN(C(=O)CC1CC(F)(F)C1)c1cnc2nc(-c3n[nH]c4c3C[C@@H]3C[C@]3(C)C4)[nH]c2c1 [Example 48, 2-(3,3-Difluorocyclobutyl)-N-methyl-N-(2-((4aS,5aR)-5a-methyl-1,4,4a,5,5a,6-hexahydrocyclopropa[f]indazol-3-yl)-1H-imidazo[4,5-b]pyridin-6-yl)acetamide]
IC50 [1]: 326 nM

SMILES: CN(C(=O)CC1CC2(CCC2)C1)c1cnc2nc(-c3n[nH]c4c3C[C@@H]3C[C@]3(C)C4)[nH]c2c1 [Example 49, N-Methyl-N-(2-((4aS,5aR)-5a-methyl-1,4,4a,5,5a,6-hexahydrocyclopropa[f]indazol-3-yl)-1H-imidazo[4,5-b]pyridin-6-yl)-2-(spiro[3.3]heptan-2-yl)acetamide]
IC50 [1]: 157 nM

SMILES: CN(C(=O)CC1CC2(C1)CC2(F)F)c1cnc2nc(-c3n[nH]c4c3C[C@@H]3C[C@]3(C)C4)[nH]c2c1 (stereo partly drawn) [Example 50, 2-(1,1-Difluorospiro[2.3]hexan-5-yl)-N-methyl-N-(2-((4aS,5aR)-5a-methyl-1,4,4a,5,5a,6-hexahydrocyclopropa[f]indazol-3-yl)-1H-imidazo[4,5-b]pyridin-6-yl)acetamide]
IC50 [1]: 171 nM

SMILES: CN(C(=O)CC1CC2(C1)CC(F)(F)C2)c1cnc2nc(-c3n[nH]c4c3C[C@@H]3C[C@]3(C)C4)[nH]c2c1 [Example 54, 2-(6,6-Difluorospiro[3.3]heptan-2-yl)-N-methyl-N-(2-((4aS,5aR)-5a-methyl-1,4,4a,5,5a,6-hexahydrocyclopropa[f]indazol-3-yl)-1H-imidazo[4,5-b]pyridin-6-yl)acetamide]
IC50 [1]: 131 nM

SMILES: CN(C(=O)C1CC(C)(C)C1)c1cnc2[nH]c(-c3n[nH]c4c3CCC(C)(C)C4)nc2c1 [Example 96, N-(2-(6,6-Dimethyl-4,5,6,7-tetrahydro-1H-indazol-3-yl)-3H-imidazo[4,5-b]pyridin-6-yl)-N,3,3-trimethylcyclobutane-1-carboxamide]
IC50 [2]: 311 nM

SMILES: CN(C(=O)C12CC(C1)C2)c1cnc2[nH]c(-c3n[nH]c4c3CCC(C)(C)C4)nc2c1 [Example 111, N-(2-(6,6-Dimethyl-4,5,6,7-tetrahydro-1H-indazol-3-yl)-3H-imidazo[4,5-b]pyridin-6-yl)-N-methylbicyclo[1.1.1]pentane-1-carboxamide]
IC50 [2]: 416 nM

More lines, now with the values ahead:

IC50 [1]: 320 nM | IC50 [2]: 38 nM
SMILES: CC(C)[C@@H](C(=O)N(C)c1cnc2[nH]c(-c3n[nH]c4c3CC3C[C@]3(C)C4)nc2c1)N1CCOCC1 (stereo in doubt) [Example 3, (S)-N,3-Dimethyl-N-(2-((4aR,5aR)-5a-methyl-1,4,4a,5,5a,6-hexahydrocyclopropa[f]indazol-3-yl)-3H-imidazo[4,5-b]pyridin-6-yl)-2-morpholinobutanamide]

IC50 [1]: 205 nM | IC50 [2]: 38 nM
SMILES: CC[C@@H](C(=O)N(C)c1cnc2[nH]c(-c3n[nH]c4c3C[C@@H]3C[C@]3(C)C4)nc2c1)N1CCOCC1 [Example 4, (S)-N-Methyl-N-(2-((4aS,5aR)-5a-methyl-1,4,4a,5,5a,6-hexahydrocyclopropa[f]indazol-3-yl)-3H-imidazo[4,5-b]pyridin-6-yl)-2-morpholinobutanamide]

IC50 [1]: 398 nM | IC50 [2]: 70 nM
SMILES: C[C@@H](C(=O)N(C)c1cnc2nc(-c3n[nH]c4c3C[C@@H]3C[C@]3(C)C4)[nH]c2c1)n1cccn1 [Example 7, (S)-N-Methyl-N-(2-((4aS,5aR)-5a-methyl-1,4,4a,5,5a,6-hexahydrocyclopropa[f]indazol-3-yl)-1H-imidazo[4,5-b]pyridin-6-yl)-2-(1H-pyrazol-1-yl)propenamide]

IC50 [1]: 2110 nM
SMILES: CC(C)(C(=O)Nc1cnc2[nH]c(-c3n[nH]c4c3C[C@@H]3C[C@]3(C)C4)nc2c1)N1CCOCC1 [Example 16, 2-Methyl-N-(2-((4aS,5aR)-5a-methyl-1,4,4a,5,5a,6-hexahydrocyclopropa[f]indazol-3-yl)-3H-imidazo[4,5-b]pyridin-6-yl)-2-morpholinopropanamide]

IC50 [2]: 62 nM
SMILES: CC(C(=O)N(C)c1cnc2[nH]c(-c3n[nH]c4c3C[C@@H]3C[C@]3(C)C4)nc2c1)N1CCOCC1 (stereo partly drawn) [Example 27, N-Methyl-N-(2-((4aS,5aR)-5a-methyl-1,4,4a,5,5a,6-hexahydrocyclopropa[f]indazol-3-yl)-3H-imidazo[4,5-b]pyridin-6-yl)-2-morpholinopropanamide]

IC50 [1]: 815 nM
SMILES: CCc1nc2[nH]c(-c3n[nH]c4c3C[C@@H]3C[C@]3(C)C4)nc2cc1N(C)C(=O)CN1CCOCC1 [Example 37, N-(5-Ethyl-2-((4aS,5aR)-5a-methyl-1,4,4a,5,5a,6-hexahydrocyclopropa[f]indazol-3-yl)-3H-imidazo[4,5-b]pyridin-6-yl)-N-methyl-2-morpholinoacetamide]

IC50 [2]: 333 nM
SMILES: CN(C(=O)C(C)(C)C1CCOCC1)c1cnc2[nH]c(-c3n[nH]c4c3CCC(C)(C)C4)nc2c1 [Example 93, N-(2-(6,6-Dimethyl-4,5,6,7-tetrahydro-1H-indazol-3-yl)-3H-imidazo[4,5-b]pyridin-6-yl)-N,2-dimethyl-2-(tetrahydro-2H-pyran-4-yl)propanamide]
